In ChEMBL document CHEMBL1148503, “Evaluation of the eutomer of 4-{3-(4-chlorophenyl)-3-hydroxypyrrolidin-1-yl}-1-(4-fluorophenyl)butan-1-one, {(+)-SYA 09}, a pyrrolidine analog of haloperidol” (Bioorg Med Chem Lett, 2006):

How the values were obtained:
[1] = molecular target: T1, 5-hydroxytryptamine receptor 1A (Homo sapiens, UniProt P08908); experiment: Binding affinity to human cloned 5HT1A receptor by radioligand binding assay
T1 sequence (P08908 whole entry): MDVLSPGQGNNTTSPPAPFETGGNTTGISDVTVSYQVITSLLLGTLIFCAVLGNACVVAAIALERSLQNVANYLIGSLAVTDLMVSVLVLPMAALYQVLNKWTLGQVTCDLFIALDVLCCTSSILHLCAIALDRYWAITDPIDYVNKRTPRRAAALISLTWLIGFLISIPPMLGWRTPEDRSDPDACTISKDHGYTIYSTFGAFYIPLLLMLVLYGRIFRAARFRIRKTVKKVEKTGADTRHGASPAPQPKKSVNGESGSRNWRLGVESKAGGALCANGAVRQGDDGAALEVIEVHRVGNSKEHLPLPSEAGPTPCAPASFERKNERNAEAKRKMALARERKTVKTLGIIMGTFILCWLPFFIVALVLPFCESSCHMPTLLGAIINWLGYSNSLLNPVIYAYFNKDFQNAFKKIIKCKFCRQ

[2] = molecular target: T2, 5-hydroxytryptamine receptor 2C (Homo sapiens, UniProt P28335); experiment: Binding affinity to human cloned 5HT2C receptor by radioligand binding assay
T2 sequence (P28335 whole entry): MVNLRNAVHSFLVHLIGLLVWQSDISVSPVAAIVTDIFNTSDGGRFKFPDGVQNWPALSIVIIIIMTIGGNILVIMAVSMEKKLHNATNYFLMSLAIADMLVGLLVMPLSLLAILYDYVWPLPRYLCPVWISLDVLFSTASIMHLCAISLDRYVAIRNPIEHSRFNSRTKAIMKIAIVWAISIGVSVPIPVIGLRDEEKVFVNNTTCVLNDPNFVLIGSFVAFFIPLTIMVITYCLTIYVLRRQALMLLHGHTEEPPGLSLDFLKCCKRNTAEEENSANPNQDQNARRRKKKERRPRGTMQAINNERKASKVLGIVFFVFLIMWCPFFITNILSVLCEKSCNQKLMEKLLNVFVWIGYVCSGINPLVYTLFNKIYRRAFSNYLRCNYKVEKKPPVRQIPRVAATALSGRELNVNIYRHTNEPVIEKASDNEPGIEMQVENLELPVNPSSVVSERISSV

[3] = molecular target: T3, Alpha-1A adrenergic receptor (Homo sapiens, UniProt P35348); experiment: Binding affinity to human cloned adrenergic alpha-1A receptor by radioligand binding assay
T3 sequence (P35348 whole entry): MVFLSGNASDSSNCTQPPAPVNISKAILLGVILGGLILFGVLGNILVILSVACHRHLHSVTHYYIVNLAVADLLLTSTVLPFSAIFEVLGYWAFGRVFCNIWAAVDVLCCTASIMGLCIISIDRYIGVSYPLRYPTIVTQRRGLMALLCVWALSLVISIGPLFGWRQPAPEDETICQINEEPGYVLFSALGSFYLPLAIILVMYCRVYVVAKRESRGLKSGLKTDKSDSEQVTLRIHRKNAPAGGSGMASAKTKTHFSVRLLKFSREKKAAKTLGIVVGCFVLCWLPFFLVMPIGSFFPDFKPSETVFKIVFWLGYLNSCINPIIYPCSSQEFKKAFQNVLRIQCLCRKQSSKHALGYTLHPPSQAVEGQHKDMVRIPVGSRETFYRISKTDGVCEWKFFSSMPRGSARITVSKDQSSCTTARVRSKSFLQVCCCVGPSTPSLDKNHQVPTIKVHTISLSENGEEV

[4] = molecular target: T4, Alpha-1B adrenergic receptor (Homo sapiens, UniProt P35368); experiment: Binding affinity to human cloned adrenergic alpha-1B receptor by radioligand binding assay
T4 sequence (P35368 whole entry): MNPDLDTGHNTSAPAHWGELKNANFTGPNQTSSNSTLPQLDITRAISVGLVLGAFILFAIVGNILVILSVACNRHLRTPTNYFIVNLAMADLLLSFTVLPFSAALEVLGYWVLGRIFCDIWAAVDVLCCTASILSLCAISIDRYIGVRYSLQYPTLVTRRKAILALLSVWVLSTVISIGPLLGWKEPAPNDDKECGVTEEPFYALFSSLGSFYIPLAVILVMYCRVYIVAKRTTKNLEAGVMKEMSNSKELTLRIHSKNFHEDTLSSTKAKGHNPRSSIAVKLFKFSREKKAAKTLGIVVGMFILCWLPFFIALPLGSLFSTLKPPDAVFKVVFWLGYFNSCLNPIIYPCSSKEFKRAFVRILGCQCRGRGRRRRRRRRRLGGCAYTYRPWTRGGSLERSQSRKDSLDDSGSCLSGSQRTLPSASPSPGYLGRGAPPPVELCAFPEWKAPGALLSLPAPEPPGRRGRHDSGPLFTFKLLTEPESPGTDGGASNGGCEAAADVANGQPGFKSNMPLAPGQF

Mus musculus = experiment: Inhibition of apomorphine-induced climbing in ip dosed Swiss Webster mouse; type: functional
[5] = molecular target: T5, Alpha-2A adrenergic receptor (Homo sapiens, UniProt P08913); experiment: Binding affinity to human cloned adrenergic alpha-2A receptor by radioligand binding assay
T5 sequence (P08913 whole entry): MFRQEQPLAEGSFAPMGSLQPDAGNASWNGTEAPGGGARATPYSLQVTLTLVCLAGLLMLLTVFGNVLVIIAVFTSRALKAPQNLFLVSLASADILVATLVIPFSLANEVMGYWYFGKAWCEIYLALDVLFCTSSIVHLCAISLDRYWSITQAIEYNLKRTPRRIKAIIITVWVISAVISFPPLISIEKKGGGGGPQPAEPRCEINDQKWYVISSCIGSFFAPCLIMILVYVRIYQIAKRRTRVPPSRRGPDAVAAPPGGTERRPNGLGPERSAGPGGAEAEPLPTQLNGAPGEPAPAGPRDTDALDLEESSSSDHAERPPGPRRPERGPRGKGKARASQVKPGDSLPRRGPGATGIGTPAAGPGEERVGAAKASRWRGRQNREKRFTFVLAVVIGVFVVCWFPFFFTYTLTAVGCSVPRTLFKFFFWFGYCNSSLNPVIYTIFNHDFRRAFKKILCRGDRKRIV

[6] = molecular target: T6, Alpha-2B adrenergic receptor (Homo sapiens, UniProt P18089); experiment: Binding affinity to human cloned adrenergic alpha-2B receptor by radioligand binding assay
T6 sequence (P18089 whole entry): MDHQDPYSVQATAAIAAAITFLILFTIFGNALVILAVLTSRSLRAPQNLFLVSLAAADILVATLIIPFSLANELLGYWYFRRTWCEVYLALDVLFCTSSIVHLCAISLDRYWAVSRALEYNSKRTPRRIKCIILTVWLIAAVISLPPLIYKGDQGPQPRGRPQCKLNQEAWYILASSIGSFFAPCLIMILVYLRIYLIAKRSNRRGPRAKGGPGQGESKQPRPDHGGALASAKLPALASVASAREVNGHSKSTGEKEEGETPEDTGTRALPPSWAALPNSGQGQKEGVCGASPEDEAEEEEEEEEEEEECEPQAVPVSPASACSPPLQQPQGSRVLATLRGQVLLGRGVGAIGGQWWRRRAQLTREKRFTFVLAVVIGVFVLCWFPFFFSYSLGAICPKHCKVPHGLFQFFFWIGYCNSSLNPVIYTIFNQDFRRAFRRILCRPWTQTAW

[7] = molecular target: T7, Alpha-2C adrenergic receptor (Homo sapiens, UniProt P18825); experiment: Binding affinity to human cloned adrenergic alpha-2C receptor by radioligand binding assay
T7 sequence (P18825 whole entry): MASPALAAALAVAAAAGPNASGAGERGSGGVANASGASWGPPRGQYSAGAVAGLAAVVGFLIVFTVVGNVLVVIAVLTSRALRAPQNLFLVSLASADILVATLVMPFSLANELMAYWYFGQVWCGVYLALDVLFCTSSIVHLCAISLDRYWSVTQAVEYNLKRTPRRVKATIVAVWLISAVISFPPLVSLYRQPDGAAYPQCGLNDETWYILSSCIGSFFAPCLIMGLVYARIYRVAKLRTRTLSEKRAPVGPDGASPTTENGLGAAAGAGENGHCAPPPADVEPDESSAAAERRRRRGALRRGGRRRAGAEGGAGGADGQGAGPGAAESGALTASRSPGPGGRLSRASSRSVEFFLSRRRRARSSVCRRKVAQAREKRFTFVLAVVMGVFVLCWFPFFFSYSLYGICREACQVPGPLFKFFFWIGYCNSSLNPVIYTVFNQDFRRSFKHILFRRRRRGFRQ

SMILES | Ki [1] [nM] | Ki [2] [nM] | Ki [3] [nM] | Ki [4] [nM] | ED50 (Mus musculus) [mg/kg] | Ki [5] [nM] | Ki [6] [nM] | Ki [7] [nM]
O=C(CCCN1CCC(O)(c2ccc(Cl)cc2)C1)c1ccc(F)cc1 (stereo in doubt; 2b) | 832 | 1250 | 34 | 41.7 |  |  |  | 
O=C(CCCN1CCC(O)(c2ccc(Cl)cc2)CC1)c1ccc(F)cc1 [HALOPERIDOL] |  |  |  |  | 0.007 |  |  | 
O=C(CCCN1C2CCC1CC(O)(c1ccc(Cl)cc1)C2)c1ccc(F)cc1 (stereo unspecified) |  |  | 39.3 | 42.7 |  | 2830 | 516 | 143
O=C(CCCN1CCC(O)(c2ccc(Cl)cc2)C1)c1ccc(F)cc1 (single isomer, unassigned; (+)) | 722 | 3600 | 115 | 102 | 1.6 |  |  | 
CN1CCN(C2=Nc3cc(Cl)ccc3Nc3ccccc32)CC1 [CLOZAPINE] |  |  |  |  | 5.54 |  |  | 
